From PMC5218480 (PLoS ONE, 2017) come the findings set out here.

This experiment deals with MV-4-11 cells. Description: Gene expression microarray analysis (Affymetrix PrimeView) and GSEA. The experiment is classed as cell-based, human. On the set-up: RFU PODN (11730768_x_at) / Fold change /veh PODN (11730768_x_at) / RFU LINC00158 (11744669_a_at) / Fold change /veh LINC00158 (11744669_a_at) / RFU DUSP10 (11751237_a_at) / Fold change /veh DUSP10 (11751237_a_at) / RFU ID3 (11757404_x_at) / Fold change /veh ID3 (11757404_x_at) / RFU PLEKHG5 (11737974_s_at) / Fold change /veh PLEKHG5 (11737974_s_at) / RFU LRRC4B (11730491_at) / Fold change /veh LRRC4B (11730491_at) / RFU GIMAP4 (11747438_a_at) / Fold change /veh GIMAP4 (11747438_a_at) / RFU KRT8 (11758183_x_at) / Fold change /veh KRT8 (11758183_x_at) / RFU CNN1 (11734310_a_at) / Fold change /veh CNN1 (11734310_a_at) / RFU VPS37D (11726825_at) / Fold change /veh VPS37D (11726825_at) / RFU C10orf10 (11716522_x_at) / Fold change /veh C10orf10 (11716522_x_at) / RFU KIR2DL2 /// KIR2DL4 /// KIR2DL5A /// KIR2DL5B /// KIR2DS1 /// KIR2DS2 /// KIR2DS3 /// KIR2DS4 /// KIR3DL3 /// KIR3DL3 /// KIR3DS1 (11738374_at) / Fold change /veh KIR2DL2 /// KIR2DL4 /// KIR2DL5A /// KIR2DL5B /// KIR2DS1 /// KIR2DS2 /// KIR2DS3 /// KIR2DS4 /// KIR3DL3 /// KIR3DL3 /// KIR3DS1 (11738374_at) / RFU C1QL1 (11718748_at) / Fold change /veh C1QL1 (11718748_at) / RFU TMPRSS4 (11747572_a_at) / Fold change /veh TMPRSS4 (11747572_a_at) / RFU HAMP (11756126_x_at) / Fold change /veh HAMP (11756126_x_at) / RFU RNFT2 (11725882_a_at) / Fold change /veh RNFT2 (11725882_a_at) / RFU NR4A2 (11747474_a_at) / Fold change /veh NR4A2 (11747474_a_at) / RFU ABCC12 (11746883_a_at) / Fold change /veh ABCC12 (11746883_a_at) / RFU TMEM136 (11760407_x_at) / Fold change /veh TMEM136 (11760407_x_at) / RFU CLDN22 /// WWC2 (11732394_at) / Fold change /veh CLDN22 /// WWC2 (11732394_at) / RFU HLA-DPB1 (11760878_x_at) / Fold change /veh HLA-DPB1 (11760878_x_at) / RFU SPINT1 (11716480_a_at) / Fold change /veh SPINT1 (11716480_a_at) / RFU GAP43 (11754022_s_at) / Fold change /veh GAP43 (11754022_s_at) / RFU A4GNT (11735810_at) / Fold change /veh A4GNT (11735810_at) / RFU PRB3 (11715151_x_at) / Fold change /veh PRB3 (11715151_x_at) / RFU TUBB4B (11761932_at) / Fold change /veh TUBB4B (11761932_at) / RFU CAPN14 (11732068_a_at) / Fold change /veh CAPN14 (11732068_a_at) / RFU TMCC2 (11721928_a_at) / Fold change /veh TMCC2 (11721928_a_at) / RFU IRGQ (11745062_a_at) / Fold change /veh IRGQ (11745062_a_at) / RFU FAM174B (11720279_a_at) / Fold change /veh FAM174B (11720279_a_at) / RFU TMPRSS4 (11748680_a_at) / Fold change /veh TMPRSS4 (11748680_a_at) / RFU FAM212B (11763350_a_at) / Fold change /veh FAM212B (11763350_a_at) / RFU PLEKHG5 (11743358_a_at) / Fold change /veh PLEKHG5 (11743358_a_at) / RFU ZSCAN30 (11745921_a_at) / Fold change /veh ZSCAN30 (11745921_a_at) / RFU CMKLR1 (11741424_a_at) / Fold change /veh CMKLR1 (11741424_a_at) / RFU LOC101060620 /// MAPK8IP1 (11723275_at) / Fold change /veh LOC101060620 /// MAPK8IP1 (11723275_at) / RFU SPTSSB (11747773_x_at) / Fold change /veh SPTSSB (11747773_x_at) / RFU PRSS12 (11739890_at) / Fold change /veh PRSS12 (11739890_at) / RFU BIN1 (11741810_x_at) / Fold change /veh BIN1 (11741810_x_at) / RFU WNT11 (11732464_a_at) / Fold change /veh WNT11 (11732464_a_at) / RFU C10orf10 (11716521_a_at) / Fold change /veh C10orf10 (11716521_a_at) / RFU C5orf56 (11738089_at) / Fold change /veh C5orf56 (11738089_at) / RFU CYB561 (11721691_x_at) / Fold change /veh CYB561 (11721691_x_at) / RFU ANKRD19P (11752326_a_at) / Fold change /veh ANKRD19P (11752326_a_at) / RFU OR2T12 /// OR2T33 /// OR2T8 (11738714_s_at) / Fold change /veh OR2T12 /// OR2T33 /// OR2T8 (11738714_s_at) / RFU VCAN (11748164_a_at) / Fold change /veh VCAN (11748164_a_at) / RFU JSRP1 (11732532_at) / Fold change /veh JSRP1 (11732532_at) / RFU KRTAP10-11 (11738290_x_at) / Fold change /veh KRTAP10-11 (11738290_x_at) / RFU MYO3A (11730013_a_at) / Fold change /veh MYO3A (11730013_a_at) / RFU EBF3 (11725865_a_at) / Fold change /veh EBF3 (11725865_a_at) / RFU CAMK2N1 (11719241_x_at) / Fold change /veh CAMK2N1 (11719241_x_at) / RFU C5orf56 (11738088_a_at) / Fold change /veh C5orf56 (11738088_a_at) / RFU OLFML3 (11715873_a_at) / Fold change /veh OLFML3 (11715873_a_at) / RFU LOC100653217 /// NTM (11731650_a_at) / Fold change /veh LOC100653217 /// NTM (11731650_a_at) / RFU MAPK11 (11762145_a_at) / Fold change /veh MAPK11 (11762145_a_at) / RFU FIZ1 (11724087_x_at) / Fold change /veh FIZ1 (11724087_x_at) / RFU OASL (11726364_x_at) / Fold change /veh OASL (11726364_x_at) / RFU SOX15 (11748057_x_at) / Fold change /veh SOX15 (11748057_x_at) / RFU CD79A (11719716_a_at) / Fold change /veh CD79A (11719716_a_at) / RFU HIST1H1D (11736915_at) / Fold change /veh HIST1H1D (11736915_at) / RFU CASKIN2 (11723855_a_at) / Fold change /veh CASKIN2 (11723855_a_at) / RFU LOC730098 (11760151_x_at) / Fold change /veh LOC730098 (11760151_x_at) / RFU OR4N2 (11742367_at) / Fold change /veh OR4N2 (11742367_at) / RFU PRRT2 (11749266_a_at) / Fold change /veh PRRT2 (11749266_a_at) / RFU SNX32 (11753110_a_at) / Fold change /veh SNX32 (11753110_a_at) / RFU CDHR5 (11726645_a_at) / Fold change /veh CDHR5 (11726645_a_at) / RFU RCAN1 (11760418_a_at) / Fold change /veh RCAN1 (11760418_a_at) / RFU FAM167A (11723789_a_at) / Fold change /veh FAM167A (11723789_a_at) / RFU FAM26E (11764081_at) / Fold change /veh FAM26E (11764081_at) / RFU ISYNA1 (11749810_s_at) / Fold change /veh ISYNA1 (11749810_s_at) / RFU ACY1 (11761880_at) / Fold change /veh ACY1 (11761880_at) / RFU 11764098_at / Fold change /veh 11764098_at / RFU SAMD14 (11745864_x_at) / Fold change /veh SAMD14 (11745864_x_at) / RFU NPB (11741838_a_at) / Fold change /veh NPB (11741838_a_at) / RFU TMPRSS6 (11731388_a_at) / Fold change /veh TMPRSS6 (11731388_a_at) / RFU KRTAP10-2 (11738614_at) / Fold change /veh KRTAP10-2 (11738614_at) / RFU ARHGAP8 /// PRR5-ARHGAP8 (11727945_x_at) / Fold change /veh ARHGAP8 /// PRR5-ARHGAP8 (11727945_x_at) / RFU KRTAP5-7 /// NADSYN1 (11734609_at) / Fold change /veh KRTAP5-7 /// NADSYN1 (11734609_at) / RFU RASL12 (11751679_a_at) / Fold change /veh RASL12 (11751679_a_at) / RFU CDKN2B (11736163_a_at) / Fold change /veh CDKN2B (11736163_a_at) / RFU PRF1 (11729649_at) / Fold change /veh PRF1 (11729649_at) / RFU, ZNF638 /// ZNF638-IT1 / Fold change vs veh, ZNF638 /// ZNF638-IT1 / RFU, PANK3 / Fold change vs veh, PANK3 / RFU, SH3YL1 / Fold change vs veh, SH3YL1 / RFU, ZEB2 / Fold change vs veh, ZEB2 / RFU, NRIP1 / Fold change vs veh, NRIP1 / RFU, PTTG1IP / Fold change vs veh, PTTG1IP / RFU, CAPN2 / Fold change vs veh, CAPN2 / RFU, MED14 / Fold change vs veh, MED14 / RFU, SNORA58 / Fold change vs veh, SNORA58 / RFU, C1orf63 / Fold change vs veh, C1orf63 / RFU, LRRFIP1 / Fold change vs veh, LRRFIP1 / RFU, NDUFAF7 / Fold change vs veh, NDUFAF7 / RFU, SLC12A2 / Fold change vs veh, SLC12A2 / RFU, IBTK / Fold change vs veh, IBTK / RFU, ESF1 / Fold change vs veh, ESF1 / Fold change vs veh, TMEM50B / RFU, TAOK1 / Fold change vs veh, TAOK1 / RFU, ACBD3 / Fold change vs veh, ACBD3 / RFU, TMA16 / Fold change vs veh, TMA16 / RFU, RWDD3 / Fold change vs veh, RWDD3 / RFU, BCAT1 / Fold change vs veh, BCAT1 / RFU, EDEM3 / Fold change vs veh, EDEM3 / RFU, TMEM33 / Fold change vs veh, TMEM33 / RFU, WDR75 / Fold change vs veh, WDR75 / RFU, AHCTF1 / Fold change vs veh, AHCTF1 / RFU, TFRC / Fold change vs veh, TFRC / RFU, ZDHHC17 / Fold change vs veh, ZDHHC17 / RFU, NOM1 / Fold change vs veh, NOM1 / RFU, ARL8B / Fold change vs veh, ARL8B / RFU, ZBTB11 / Fold change vs veh, ZBTB11 / RFU, TAMM41 / Fold change vs veh, TAMM41 / RFU, KIAA1704 /// LOC100996395 / Fold change vs veh, KIAA1704 /// LOC100996395 / RFU, ING1 / Fold change vs veh, ING1 / RFU, TRMT61B / Fold change vs veh, TRMT61B / RFU, FUBP3 / Fold change vs veh, FUBP3 / RFU, TP53 / Fold change vs veh, TP53 / RFU, TNKS2 / Fold change vs veh, TNKS2 / RFU, ZFP14 / Fold change vs veh, ZFP14 / RFU, ACTR2 / Fold change vs veh, ACTR2 / RFU, PPP3R1 / Fold change vs veh, PPP3R1 / RFU, PIK3R1 / Fold change vs veh, PIK3R1 / RFU, HNRNPA1 / Fold change vs veh, HNRNPA1 / RFU, RNF170 / Fold change vs veh, RNF170 / RFU, ZNF28 / Fold change vs veh, ZNF28 / RFU, RNGTT / Fold change vs veh, RNGTT / RFU, OGT / Fold change vs veh, OGT / RFU, BRD1 / Fold change vs veh, BRD1 / RFU, MARS / Fold change vs veh, MARS / RFU, ZNF655 / Fold change vs veh, ZNF655 / RFU, FAHD1 / Fold change vs veh, FAHD1 / RFU, BDP1 / Fold change vs veh, BDP1 / RFU, LRRCC1 / Fold change vs veh, LRRCC1 / RFU, ARID1A / Fold change vs veh, ARID1A / RFU, ZNF146 / Fold change vs veh, ZNF146 / RFU, ZNF330 / Fold change vs veh, ZNF330 / RFU, GPN3 / Fold change vs veh, GPN3 / RFU, C9orf123 / Fold change vs veh, C9orf123 / RFU, N4BP2L2 / Fold change vs veh, N4BP2L2 / RFU, ARFIP1 / Fold change vs veh, ARFIP1 / RFU, FAM179B / Fold change vs veh, FAM179B / RFU, BCL10 / Fold change vs veh, BCL10 / RFU, UHRF1BP1L / Fold change vs veh, UHRF1BP1L / RFU, BET1 / Fold change vs veh, BET1 / RFU, CNOT2 / Fold change vs veh, CNOT2 / RFU, ZNF268 / Fold change vs veh, ZNF268 / Fold change vs veh, ZNF507 / RFU, DGCR2 / Fold change vs veh, DGCR2 / RFU, WDSUB1 / Fold change vs veh, WDSUB1 / Fold change vs veh, HSP90B1 /// MIR3652 / RFU, ADSS / Fold change vs veh, ADSS / RFU, GK / Fold change vs veh, GK / RFU, ZNF148 / Fold change vs veh, ZNF148 / RFU, TAF9 / Fold change vs veh, TAF9 / RFU, SLC1A5 / Fold change vs veh, SLC1A5 / RFU, SLMO2 / Fold change vs veh, SLMO2 / RFU, ABCC4 / Fold change vs veh, ABCC4 / RFU, LOC101060439 /// RAP1B / Fold change vs veh, LOC101060439 /// RAP1B / RFU, RFX7 / Fold change vs veh, RFX7 / RFU, GTPBP10 / Fold change vs veh, GTPBP10 / RFU, CNEP1R1 / Fold change vs veh, CNEP1R1 / RFU, BIVM-ERCC5 /// ERCC5 / Fold change vs veh, BIVM-ERCC5 /// ERCC5 / RFU, ILF3 / Fold change vs veh, ILF3 / RFU 11762660_at / Fold change /veh 11762660_at / RFU VCAN (11757783_s_at) / Fold change /veh VCAN (11757783_s_at) / RFU DDX43 (11728927_at) / Fold change /veh DDX43 (11728927_at) / RFU KRT8 (11758188_x_at) / Fold change /veh KRT8 (11758188_x_at) / RFU NKD1 (11759106_at) / Fold change /veh NKD1 (11759106_at) / RFU SRD5A1 (11742802_a_at) / Fold change /veh SRD5A1 (11742802_a_at) / RFU TPSAB1 /// TPSB2 (11721975_s_at) / Fold change /veh TPSAB1 /// TPSB2 (11721975_s_at) / RFU GSTM3 (11746129_a_at) / Fold change /veh GSTM3 (11746129_a_at) / RFU IL23R (11737362_x_at) / Fold change /veh IL23R (11737362_x_at) / RFU TMEM51 (11727254_a_at) / Fold change /veh TMEM51 (11727254_a_at) / RFU PIWIL2 (11732686_x_at) / Fold change /veh PIWIL2 (11732686_x_at) / RFU ORM1 (11744905_x_at) / Fold change /veh ORM1 (11744905_x_at) / RFU CCDC152 (11743942_at) / Fold change /veh CCDC152 (11743942_at) / RFU ECM1 (11717891_a_at) / Fold change /veh ECM1 (11717891_a_at) / RFU IL23R (11748794_a_at) / Fold change /veh IL23R (11748794_a_at) / RFU TNFAIP8L3 (11732012_x_at) / Fold change /veh TNFAIP8L3 (11732012_x_at) / RFU MBOAT4 (11741988_at) / Fold change /veh MBOAT4 (11741988_at) / RFU 11764193_at / Fold change /veh 11764193_at / RFU TMEM53 (11763286_at) / Fold change /veh TMEM53 (11763286_at) / RFU MAGEB2 (11727129_at) / Fold change /veh MAGEB2 (11727129_at) / RFU TMEM200A (11744735_a_at) / Fold change /veh TMEM200A (11744735_a_at) / RFU CCDC152 (11751479_a_at) / Fold change /veh CCDC152 (11751479_a_at) / RFU FAM211A (11726209_a_at) / Fold change /veh FAM211A (11726209_a_at) / RFU RGS16 (11746705_a_at) / Fold change /veh RGS16 (11746705_a_at) / RFU VCAN (11755009_s_at) / Fold change /veh VCAN (11755009_s_at) / RFU RHOB (11743442_s_at) / Fold change /veh RHOB (11743442_s_at) / RFU RGS16 (11720943_a_at) / Fold change /veh RGS16 (11720943_a_at) / RFU RGS16 (11720944_at) / Fold change /veh RGS16 (11720944_at) / RFU, VPS4B / Fold change vs veh, VPS4B / RFU, CREB1 / Fold change vs veh, CREB1 / RFU, DNAJC13 / Fold change vs veh, DNAJC13 / RFU, GNAQ / Fold change vs veh, GNAQ / RFU, CDK5R1 / Fold change vs veh, CDK5R1 / RFU, ZRANB3 / Fold change vs veh, ZRANB3 / RFU, CUL4A / Fold change vs veh, CUL4A / RFU, CCNY / Fold change vs veh, CCNY / RFU, UFL1 / Fold change vs veh, UFL1 / RFU, COG3 / Fold change vs veh, COG3 / RFU, DIAPH2 / Fold change vs veh, DIAPH2 / RFU, SKA2 / Fold change vs veh, SKA2 / RFU, AFF3 / Fold change vs veh, AFF3 / RFU, LMF1 / Fold change vs veh, LMF1 / RFU, IPO11 / Fold change vs veh, IPO11 / RFU, DFFB / Fold change vs veh, DFFB / RFU, FOXP1 / Fold change vs veh, FOXP1 / RFU, CARD8 / Fold change vs veh, CARD8 / RFU, STRN3 / Fold change vs veh, STRN3 / RFU, ADK / Fold change vs veh, ADK / RFU, RASSF2 / Fold change vs veh, RASSF2 / RFU, WIPF1 / Fold change vs veh, WIPF1 / RFU, LARP1B / Fold change vs veh, LARP1B / RFU, RASA1 / Fold change vs veh, RASA1 / RFU, RB1 / Fold change vs veh, RB1 / RFU, PPFIA1 / Fold change vs veh, PPFIA1 / RFU, MAT2A / Fold change vs veh, MAT2A / RFU, CCT5 / Fold change vs veh, CCT5 / RFU, WDR92 / Fold change vs veh, WDR92 / RFU, CUX1 / Fold change vs veh, CUX1 / RFU, TTC7A / Fold change vs veh, TTC7A / RFU, TMEM135 / Fold change vs veh, TMEM135 / RFU, DEPTOR / Fold change vs veh, DEPTOR / RFU, CPM / Fold change vs veh, CPM / RFU, DNAJB6 / Fold change vs veh, DNAJB6 / RFU, CACNA2D3 / Fold change vs veh, CACNA2D3 / RFU, DTX4 / Fold change vs veh, DTX4 / RFU, TFCP2 / Fold change vs veh, TFCP2 / RFU, GMCL1 /// GMCL1P1 / Fold change vs veh, GMCL1 /// GMCL1P1 / RFU, AEBP2 / Fold change vs veh, AEBP2 / RFU, SNHG1 /// SNORD22 /// SNORD25 /// SNORD26 /// SNORD27 /// SNORD28 /// SNORD29 /// SNORD31 / Fold change vs veh, SNHG1 /// SNORD22 /// SNORD25 /// SNORD26 /// SNORD27 /// SNORD28 /// SNORD29 /// SNORD31 / Fold change (Aza/veh), C12orf56 (ProbeSet 11735607_a_at) / Fold change (ACY-1035/veh), C12orf56 (ProbeSet 11735607_a_at) / Fold change (Aza/veh), FGFR1OP (ProbeSet 11751329_s_at) / Fold change (ACY-1035/veh), FGFR1OP (ProbeSet 11751329_s_at) / Fold change (Aza/veh), VPS36 (ProbeSet 11739960_a_at) / Fold change (ACY-1035/veh), VPS36 (ProbeSet 11739960_a_at) / RFU SYPL1 (11715823_x_at) / Fold change /veh SYPL1 (11715823_x_at) / RFU IGFBP7 (11715501_s_at) / Fold change /veh IGFBP7 (11715501_s_at) / RFU REEP3 (11722064_at) / Fold change /veh REEP3 (11722064_at) / RFU IGLL1 (11728026_x_at) / Fold change /veh IGLL1 (11728026_x_at): dose or concentration left out as unconfirmed. The conditions noted are these: ProbeSet 11732306_x_at; LIST D.

On to `Nc1ccc(-c2cccs2)cc1NC(=O)c1ccc2c(c1)cc(C1CC1)n2CCN1CCOCC1` [ACY-1035], for which the “RFU, CREB1” value was found to be 287.35 RFU.
